# From US12091411B2, “IRAK degraders and uses thereof” (Kymera Therapeutics, Inc., priority 2022, dated 2024)
# Like-named read-outs stand apart in the source and are kept apart here.
# Biological target: T1, IRAK4 (Homo sapiens, UniProt Q9NWZ3)
# T1 construct: Degradation of IRAK4 in OCI-LY10 was quantitatively measured using Meso Scale Discovery technology; endogenous in cells; host or cells: OCI-LY10
# T1 sequence (Q9NWZ3 1-460): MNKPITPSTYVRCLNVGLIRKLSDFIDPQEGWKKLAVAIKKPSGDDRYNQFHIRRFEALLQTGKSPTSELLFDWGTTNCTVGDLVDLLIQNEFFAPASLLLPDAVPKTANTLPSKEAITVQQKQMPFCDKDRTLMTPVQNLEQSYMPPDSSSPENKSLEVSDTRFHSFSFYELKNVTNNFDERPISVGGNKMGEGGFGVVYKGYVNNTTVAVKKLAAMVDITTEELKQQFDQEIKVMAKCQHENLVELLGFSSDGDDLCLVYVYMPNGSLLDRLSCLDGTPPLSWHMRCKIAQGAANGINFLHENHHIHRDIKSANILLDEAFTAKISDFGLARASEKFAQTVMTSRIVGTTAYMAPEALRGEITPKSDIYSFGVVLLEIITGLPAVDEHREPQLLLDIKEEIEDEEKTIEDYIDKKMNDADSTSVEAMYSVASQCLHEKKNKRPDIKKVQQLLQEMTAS
# Assay: IRAK4 MSD Degradation in OCI-LY10
# Assay type: cell-based
# Details: OCI-LY10 cells, MSD
# Experimental: Degradation of IRAK4 in OCI-LY10 was quantitatively measured using Meso Scale Discovery technology. […] Compounds were then added to the assay plates with a final top concentration of 1 to 10 μM in a 1:3 dilution series with total of 8 doses. The assay plates were then incubated for 4 to 24 hours at 37° C. under 5% CO2. […] To prepare MSD assay plates (Meso Scale Discovery Catalog number L15XA-3), the plates were coated with 2 μg/mL capture antibody (mouse Anti-IRAK4 antibody [2H9], ab119942) in PBS, at 40 μL/well. […] Cell lysates were then added to MSD assay plates and the plates were incubated at room temperature for 1 hour. The plates were then washed 3 times with 150 μL/well TBST buffer and 25 μL/well primary detection antibody (rabbit Anti-IRAK4 antibody [Y279], from Abcam. Catalog number ab32511, 1 μg/mL). The assay plates were then incubated at room temperature for 1 hour, washed 3 times with 150 μL/well TBST buffer and 25 μL/well secondary detection antibody, SULFO-TAG anti-rabbit antibody were added (anti-rabbit antibody from Meso Scale Discovery, Catalog number R32AB-1, 1 μg/mL). The assay plates were then incubated at room temperature for 1 hour, washed 3 times with 150 μL/well TBST buffer, and 150 μL/well MSD reading buffer (Meso Scale Discovery catalog number R92TC-2) was added. The plates were then analyzed by a MSD reader (Meso Scale Discovery, Model Quick Plex SQ 120). The data was then analyzed by software Prism 7.0 from GraphPad and the dose-depended IRAK4 degradation were fit using a three-parameter logistic equation to calculate DC50.
# The letter codes for IRAK4 DC50 include: A (<0.01 μM); B (0.01 to <0.1 μM); C (0.1 to 0.2 μM); and D (>0.2 μM or not tested).
# [1] = 4 hrs incubation, read-out: IRAK4 degradation in OCI-LY10 at 4 hrs: DC50
# [2] = 24 hrs incubation, read-out: IRAK4 degradation in OCI-LY10 at 24 hrs: DC50
SMILES,DC50 [1] [nM],DC50 [2] [nM]
Cn1c(=O)n(C2CCC(=O)NC2=O)c2cccc(CCCN3CCN(C[C@H]4CC[C@H](n5cc(NC(=O)c6cnn7ccc(N8C[C@H]9C[C@@H]8CO9)nc67)c(C(F)F)n5)CC4)CC3)c21 (relative stereo) [I-114],< 10,> 200
"Cn1c(=O)n([C@@H]2CCC(=O)NC2=O)c2cccc(C#CCN3CCN(C[C@H]4CC[C@H](n5cc(NC(=O)c6cnn7ccc(N8C[C@H]9C[C@@H]8CO9)nc67)c(C(F)F)n5)CC4)CC3)c21 (single isomer, unassigned) [I-71]",10 to 100,> 200
"Cn1c(=O)n(C2CCC(=O)NC2=O)c2cccc(N3CCN(C4CCN([C@H]5CC[C@H](n6cc(NC(=O)c7cnn8ccc(N9C[C@H]%10C[C@@H]9CO%10)nc78)c(C(F)F)n6)CC5)CC4)CC3)c21 (single isomer, unassigned) [I-201]",< 10,> 200
"Cn1c(=O)n(C2CCC(=O)NC2=O)c2cccc([C@@H]3CCN(C[C@H]4CC[C@H](n5cc6cc(NC(=O)c7cccc(C(F)(F)F)n7)ncc6n5)CC4)C[C@H]3F)c21 (single isomer, unassigned) [I-656]",> 200,< 10
"Cn1c(=O)n(C2CCC(=O)NC2=O)c2cccc(C3CN(C4CCN([C@H]5CC[C@H](n6cc(NC(=O)c7cnn8ccc(N9C[C@H]%10C[C@@H]9CO%10)nc78)c(C(F)F)n6)CC5)CC4(F)F)C3)c21 (single isomer, unassigned) [I-736]",> 200,< 10
COc1ccc2c(c1C#CCO[C@@H]1CCN(C[C@H]3CC[C@H](n4cc(NC(=O)c5cnn6ccc(N7C[C@H]8C[C@@H]7CO8)nc56)c(C(F)F)n4)CC3)C[C@@H]1F)n(C)c(=O)n2C1CCC(=O)NC1=O (stereo partly shown) [I-1],10 to 100,> 200
O=C1CCC(n2c(=O)n(C3CC3)c3c(C#CCN4CCN(C[C@H]5CC[C@H](n6cc(NC(=O)c7cnn8ccc(N9C[C@H]%10C[C@@H]9CO%10)nc78)c(C(F)F)n6)CC5)CC4)cccc32)C(=O)N1 (stereo partly shown) [I-4],< 10,> 200
O=C1CCN(c2cncc3c2cccc3[C@H]2C[C@@H](CN3CCN(C[C@H]4CC[C@H](n5cc(NC(=O)c6cnn7ccc(N8C[C@H]9C[C@@H]8CO9)nc67)c(C(F)F)n5)CC4)CC3)C2)C(=O)N1 [I-6],< 10,> 200
C[C@H]1CN(C[C@H]2CC[C@H](n3cc(NC(=O)c4cnn5ccc(N6C[C@H]7C[C@@H]6CO7)nc45)c(C(F)F)n3)CC2)CCN1CC#Cc1cccc2c1n(C)c(=O)n2C1CCC(=O)NC1=O (stereo partly shown) [I-9],10 to 100,> 200
O=C1CCN(c2cncc3c(C#CCOC4CCN(C[C@H]5CC[C@H](n6cc(NC(=O)c7cnn8ccc(N9C[C@H]%10C[C@@H]9CO%10)nc78)c(C(F)F)n6)CC5)CC4)cccc23)C(=O)N1 [I-10],< 10,> 200
O=C1CCN(c2cncc3cc(C#CCOC4CCN(C[C@H]5CC[C@H](n6cc(NC(=O)c7cnn8ccc(N9C[C@H]%10C[C@@H]9CO%10)nc78)c(C(F)F)n6)CC5)CC4)ccc23)C(=O)N1 [I-11],> 200,> 200
Cn1c(=O)n(C2CCC(=O)NC2=O)c2cccc(C#CCOC3C[C@H]4CC[C@@H](C3)N4C[C@H]3CC[C@H](n4cc(NC(=O)c5cnn6ccc(N7C[C@H]8C[C@@H]7CO8)nc56)c(C(F)F)n4)CC3)c21 (stereo partly shown) [I-12],> 200,> 200

# Second part, the molecule after the results:
DC50 [1] [nM],DC50 [2] [nM],SMILES
10 to 100,> 200,Cn1c(=O)n(C2CCC(=O)NC2=O)c2cccc(C#CCN3CCN(C[C@H]4CC[C@H](n5cc(NC(=O)c6cnn7ccc(N8C[C@H]9C[C@@H]8CO9)nc67)c(C(F)(F)F)n5)CC4)CC3)c21 (relative stereo) [I-112]
10 to 100,> 200,Cc1nn([C@H]2CC[C@H](CN3CCN(CC#Cc4cccc5c4n(C)c(=O)n5C4CCC(=O)NC4=O)CC3)CC2)cc1NC(=O)c1cnn2ccc(N3C[C@H]4C[C@@H]3CO4)nc12 (relative stereo) [I-115]
> 200,10 to 100,Cn1c(=O)n(C2CCC(=O)NC2=O)c2cccc(C#CCN3CCN(C[C@H]4CC[C@H](n5cc(NC(=O)c6cnn7ccc(N8C[C@H]9C[C@@H]8CO9)nc67)c(Cl)n5)CC4)CC3)c21 (relative stereo) [I-117]
< 10,> 200,"C[C@H]1CN(C[C@H]2CC[C@H](n3cc(NC(=O)c4cnn5ccc(N6C[C@H]7C[C@@H]6CO7)nc45)c(C(F)F)n3)CC2)CC[C@@H]1OCC#Cc1cccc2c1n(C)c(=O)n2[C@H]1CCC(=O)NC1=O (single isomer, unassigned) [I-67]"
< 10,> 200,"Cn1c(=O)n([C@H]2CCC(=O)NC2=O)c2cccc(C#CCN3CCN(C[C@H]4CC[C@H](n5cc(NC(=O)c6cnn7ccc(N8C[C@H]9C[C@@H]8CO9)nc67)c(C(F)F)n5)CC4)CC3)c21 (single isomer, unassigned) [I-72]"
10 to 100,> 200,"C[C@H]1CN(C[C@H]2CC[C@H](n3cc(NC(=O)c4cnn5ccc(N6C[C@H]7C[C@@H]6CO7)nc45)c(C(F)F)n3)CC2)CC[C@@H]1OCC#Cc1cccc2c1n(C)c(=O)n2[C@@H]1CCC(=O)NC1=O (single isomer, unassigned) [I-73]"
< 10,> 200,"Cn1c(=O)n(C2CCC(=O)NC2=O)c2cccc(N3CCN(C4CCN([C@H]5CC[C@@H](n6cc(NC(=O)c7cnn8ccc(N9C[C@H]%10C[C@@H]9CO%10)nc78)c(C(F)F)n6)CC5)CC4)CC3)c21 (single isomer, unassigned) [I-425]"
> 200,< 10,"Cn1c(=O)n(C2CCC(=O)NC2=O)c2ccc(N3CC(CO[C@H]4CCN(C[C@H]5CC[C@H](n6cc(NC(=O)c7cnn8ccc(N9C[C@H]%10C[C@@H]9CO%10)nc78)c(C(F)F)n6)CC5)C[C@H]4F)C3)c(F)c21 (single isomer, unassigned) [I-738]"
> 200,> 200,"Cn1c(=O)n(C2CCC(=O)NC2=O)c2cccc([C@H]3CCN(C[C@H]4CC[C@H](n5cc6cc(NC(=O)c7cccc(C(F)(F)F)n7)ncc6n5)CC4)C[C@H]3F)c21 (single isomer, unassigned) [I-781]"
< 10,> 200,COc1ccc2c(c1C#CCOC1CCN(C[C@H]3CC[C@H](n4cc(NC(=O)c5cnn6ccc(N7C[C@H]8C[C@@H]7CO8)nc56)c(C(F)F)n4)CC3)CC1)n(C)c(=O)n2C1CCC(=O)NC1=O (stereo partly shown) [I-2]
< 10,> 200,Cn1c(=O)n(C2CCC(=O)NC2=O)c2cccc([C@]34C[C@](COC5CCN(C[C@H]6CC[C@H](n7cc(NC(=O)c8cnn9ccc(N%10C[C@H]%11C[C@@H]%10CO%11)nc89)c(C(F)F)n7)CC6)CC5)(C3)C4)c21 (stereo partly shown) [I-3]
< 10,> 200,Cn1c(=O)n(C2CCC(=O)NC2=O)c2cccc(C#CCN3CCCN(C[C@H]4CC[C@H](n5cc(NC(=O)c6cnn7ccc(N8C[C@H]9C[C@@H]8CO9)nc67)c(C(F)F)n5)CC4)CC3)c21 (stereo partly shown) [I-5]
< 10,> 200,Cn1c(=O)n(C2CCC(=O)NC2=O)c2cccc([C@]34C[C@](CN5CCN(C[C@H]6CC[C@H](n7cc(NC(=O)c8cnn9ccc(N%10C[C@H]%11C[C@@H]%10CO%11)nc89)c(C(F)F)n7)CC6)CC5)(C3)C4)c21 (stereo partly shown) [I-8]
> 200,> 200,CN(C[C@H]1CC[C@H](n2cc(NC(=O)c3cnn4cccnc34)c(C(F)F)n2)CC1)C1CCN(c2cccc3c(N4CCC(=O)NC4=O)cncc23)CC1 [I-13]
